# Laboratory results taken from US9309263B2, “Fused multi-cyclic sulfone compounds as inhibitors of beta-secretase and methods of use thereof” (AMGEN INC., priority 2013, dated 2016).
# Like-named read-outs stand apart in the source and are kept apart here.
# Experiments:
# [1] = target: Beta Secretase enzyme (BACE) (Homo sapiens, UniProt P56817); experiment: In vitro enzymatic BACE FRET assay; assay type: biochemical; details: read-out: BACE1 FRET assay IC50
# Procedure, shortened: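 Cleavage of a quenched 50 nM FRET peptide substrate, read as fluorescence (excitation 488 nm, […]) after 1 h and Tris quench to neutrality. Buffer: 0.05 M acetate pH 4.2 with 10% DMSO and 100 uM genapol. Inhibitor dilutions were pre-incubated 1 h with 0.2 nM enzyme.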
# [2] = system: Aβ 40 in conditioned medium of cells stably expressing Amyloid Precursor Protein (APP); experiment: In vitro BACE cell-based assay (Aβ 40 sandwich ELISA); details: Homo sapiens, HEK293
# Procedure, shortened: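 Aβ40 in conditioned medium measured by pAb40/biotin-6E10 sandwich ELISA with time-resolved europium fluorescence, after 24 h exposure of stable APP cells to compounds (10-point series starting 100 μM or 10 μM; 0.1% DMSO). IC50 fitted from percent of control against concentration.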
# [3] = target: Cathepsin D (Cat D) (Homo sapiens, UniProt P07339); experiment: In vitro enzymatic Cathepsin D (Cat D) FRET assay; assay type: biochemical
# Cathepsin D (Cat D), sequence (P07339 65-412, species assumed): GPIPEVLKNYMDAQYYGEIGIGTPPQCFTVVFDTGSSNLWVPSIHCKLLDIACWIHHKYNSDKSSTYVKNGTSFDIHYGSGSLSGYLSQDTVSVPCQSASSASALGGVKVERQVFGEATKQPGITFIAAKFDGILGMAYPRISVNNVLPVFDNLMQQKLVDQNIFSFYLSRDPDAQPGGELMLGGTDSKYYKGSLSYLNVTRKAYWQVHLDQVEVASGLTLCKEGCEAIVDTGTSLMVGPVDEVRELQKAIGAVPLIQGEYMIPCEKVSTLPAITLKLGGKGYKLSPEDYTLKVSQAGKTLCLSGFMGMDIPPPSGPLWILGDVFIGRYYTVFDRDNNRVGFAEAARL
# Procedure, shortened: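 FRET peptide substrate (20 nM) is cleaved by CHO-derived recombinant enzyme (9 nM) for 1 h after a 1 h inhibitor pre-incubation, at pH 3.5 in citrate buffer with 5 mM CHAPS and 10% DMSO. Tris addition ends the reaction; fluorescence measured at 500 nm excitation, 580 nm emission.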
# [4] = average IC50, in vitro enzymatic BACE FRET assay
# [5] = average IC50, HEK cell assay, Aβ 40 readout
# [6] = Cathepsin D FRET assay, read-out: CatD IC50
# [7] = text summary referring to data in Table 2
# Beta Secretase enzyme (BACE), sequence (P56817 46-501): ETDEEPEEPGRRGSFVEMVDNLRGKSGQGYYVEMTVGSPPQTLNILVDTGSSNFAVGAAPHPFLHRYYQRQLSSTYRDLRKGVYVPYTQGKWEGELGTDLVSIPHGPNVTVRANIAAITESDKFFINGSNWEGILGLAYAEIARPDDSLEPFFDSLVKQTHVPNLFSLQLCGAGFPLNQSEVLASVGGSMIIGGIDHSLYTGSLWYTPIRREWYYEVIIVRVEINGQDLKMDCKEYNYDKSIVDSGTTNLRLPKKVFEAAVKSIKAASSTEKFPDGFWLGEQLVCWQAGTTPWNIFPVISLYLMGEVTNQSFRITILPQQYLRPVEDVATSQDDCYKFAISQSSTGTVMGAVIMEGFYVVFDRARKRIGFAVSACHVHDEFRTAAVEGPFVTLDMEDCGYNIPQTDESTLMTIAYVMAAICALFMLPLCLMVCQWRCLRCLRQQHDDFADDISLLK
Compound,IC50 ([1]; average IC50),"IC50 ([2]; HEK cell, average IC50)",IC50 ([3]; read-out: CatD IC50),"IC50 [1, 4]","IC50 [2, 5]","IC50 [3, 6]","IC50 ([2]; HEK cells, average IC50)","IC50 [3, 7]"
"CC1(C)C(N)=N[C@]2(C)c3cc(NC(=O)c4ccc(Cl)cn4)ccc3OCC[C@@]2(F)S1(=O)=O [Example 66, N-((4aR,11bR)-2-amino-4a-fluoro-3,3,11b-trimethyl-4,4-dioxido-4a,5,6,11b-tetrahydro-3H-[1]benzoxepino[4,5-b][1,4]thiazin-10-yl)-5-chloro-2-pyridinecarboxamide]",0.008 µM,0.089 µM,269 µM,–,–,–,–,–
"C#CCOc1cnc(C(=O)Nc2ccc3c(c2)[C@@]2(C)N=C(N)C(C)(C)S(=O)(=O)[C@@H]2C[C@H](C)O3)cn1 [Example 142, N-((4aR,6S,11bR)-2-amino-3,3,6,11b-tetramethyl-4,4-dioxido-4a,5,6,11b-tetrahydro-3H-[1]benzoxepino[4,5-b][1,4]thiazin-10-yl)-5-(2-propyn-1-yloxy)-2-pyrazinecarboxamide]",–,–,–,0.001 µM,0.0005 µM,215 µM,–,–
"Cc1c(C(=O)Nc2ccc3c(c2)[C@@]2(C)N=C(N)C(C)(C)S(=O)(=O)[C@@H]2CCC3)nc2ccc(Cl)cn12 [Example 49, N-((4aR,11bR)-2-amino-3,3,11b-trimethyl-4,4-dioxido-3,4a,5,6,7,11b-hexahydrobenzo[3,4]cyclohepta[1,2-b][1,4]thiazin-10-yl)-6-chloro-3-methylimidazo[1,2-a]pyridine-2-carboxamide]",0.082 µM,0.013 µM,394 µM,–,–,–,–,–
"Cc1cc(Cl)cnc1C(=O)Nc1ccc2c(c1)[C@@]1(C)N=C(N)C(C)(C)S(=O)(=O)[C@]1(F)CCO2 [Example 65, N-((4aR,11bR)-2-amino-4a-fluoro-3,3,11b-trimethyl-4,4-dioxido-4a,5,6,11b-tetrahydro-3H-[1]benzoxepino[4,5-b][1,4]thiazin-10-yl)-5-chloro-3-methyl-2-pyridinecarboxamide]",0.006 µM,0.074 µM,324 µM,–,–,–,–,–
"CC1(C)C(N)=N[C@]2(C)c3cc(NC(=O)c4cnc(C(F)(F)F)cn4)ccc3OCC[C@H]2S1(=O)=O [Example 164, N-((4aR,11bR)-2-amino-3,3,11b-trimethyl-4,4-dioxido-4a,5,6,11b-tetrahydro-3H-[1]benzoxepino[4,5-b][1,4]thiazin-10-yl)-5-(trifluoromethyl)-2-pyrazinecarboxamide]",0.028 µM,–,1600 µM,–,–,–,0.017 µM,–
"Cc1nc(OCC(F)(F)F)cnc1C(=O)Nc1ccc2c(c1)[C@@]1(C)N=C(N)C(C)(C)S(=O)(=O)[C@@H]1CCO2 [Example 23, N-((4aR,11bR)-2-amino-3,3,11b-trimethyl-4,4-dioxido-4a,5,6,11b-tetrahydro-3H-[1]benzoxepino[4,5-b][1,4]thiazin-10-yl)-3-methyl-5-(2,2,2-trifluoroethoxy)-2-pyrazinecarboxamide]",0.003 µM,0.01 µM,1400 µM,–,–,–,–,–
"CCc1ccc(C(=O)Nc2ccc3c(c2)[C@@]2(C)N=C(N)C(C)(C)S(=O)(=O)[C@@H]2CCO3)nc1 [Example 29, N-((4aR,11bR)-2-amino-3,3,11b-trimethyl-4,4-dioxido-4a,5,6,11b-tetrahydro-3H-[1]benzoxepino[4,5-b][1,4]thiazin-10-yl)-5-ethyl-2-pyridinecarboxamide]",0.038 µM,0.01 µM,1370 µM,–,–,–,–,> 1200 µM
"CC1(C)C(N)=N[C@]2(C)c3cc(Nc4nccc5cc(C#N)cnc45)ccc3CCC[C@@H]2S1(=O)=O [Example 33, 8-(((4aS,11bR)-2-amino-3,3,11b-trimethyl-4,4-dioxido-3,4a,5,6,7,11b-hexahydrobenzo[3,4]cyclohepta[1,2-b][1,4]thiazin-10-yl)amino)-1,7-naphthyridine-3-carbonitrile]",0.029 µM,0.097 µM,286 µM,–,–,–,–,–
"CCc1cc(Cl)cnc1C(=O)Nc1ccc2c(c1)[C@@]1(C)N=C(N)C(C)(C)S(=O)(=O)[C@@H]1CCO2 [Example 31, N-((4aR,11bR)-2-amino-3,3,11b-trimethyl-4,4-dioxido-4a,5,6,11b-tetrahydro-3H-benzo[6,7]oxepino[4,5-b][1,4]thiazin-10-yl)-5-chloro-3-ethylpicolinamide]",0.015 µM,0.016 µM,226 µM,–,–,–,–,–
"CC1(C)C(N)=N[C@]2(C)c3cc(NC(=O)c4ncc(Cl)cc4Cl)ccc3CCC[C@@H]2S1(=O)=O [Example 36, N-((4aS,11bR)-2-amino-3,3,11b-trimethyl-4,4-dioxido-3,4a,5,6,7,11b-hexahydrobenzo[3,4]cyclohepta[1,2-b][1,4]thiazin-10-yl)-3,5-dichloro-2-pyridinecarboxamide]",0.062 µM,0.29 µM,> 400 µM,–,–,–,–,–
"CC1(C)C(N)=N[C@]2(C)c3cc(NC(=O)c4cnc(OCC5CC5)cn4)ccc3OCC[C@H]2S1(=O)=O [Example 88, N-((4aR,11bR)-2-amino-3,3,11b-trimethyl-4,4-dioxido-4a,5,6,11b-tetrahydro-3H-benzo[6,7]oxepino[4,5-b][1,4]thiazin-10-yl)-5-(cyclopropylmethoxy)pyrazine-2-carboxamide]",–,–,–,0.01 µM,0.044 µM,745 µM,–,–
"CC(C)Oc1cnc2c(Nc3ccc4c(c3)[C@@]3(CF)N=C(N)C(C)(C)S(=O)(=O)[C@@H]3CCO4)nccc2n1 [Example 150, (4aR,11bS)-11b-(fluoromethyl)-3,3-dimethyl-N^~10^~-(2-(1-methylethoxy)pyrido[3,4-b]pyrazin-5-yl)-4a,5,6,11b-tetrahydro-3H-[1]benzoxepino[4,5-b][1,4]thiazine-2,10-diamine 4,4-dioxide]",–,–,–,0.227 µM,1.4 µM,> 400 µM,–,–
"CC1(C)C(N)=N[C@]2(C)c3cc(NC(=O)c4ccc(Cl)cn4)ccc3OCC[C@H]2S1(=O)=O [Example 186, N-((4aR,11bR)-2-amino-3,3,11b-trimethyl-4,4-dioxido-4a,5,6,11b-tetrahydro-3H-[1]benzoxepino[4,5-b][1,4]thiazin-10-yl)-5-chloro-2-pyridinecarboxamide]",0.006 µM,–,279 µM,–,–,–,0.01 µM,–
"C#CCOc1cnc(C(=O)Nc2ccc3c(c2)[C@@]2(C)N=C(N)C(C)(C)S(=O)(=O)[C@@H]2CC(C)(C)O3)cn1 [Example 143, N-((4aR,11bR)-2-Amino-3,3,6,6,11b-pentamethyl-4,4-dioxido-4a,5,6,11b-tetrahydro-3H-benzo[6,7]oxepino[4,5-b][1,4]thiazin-10-yl)-5-(prop-2-yn-1-yloxy)pyrazine-2-carboxamide]",–,–,–,0.002 µM,0.0005 µM,202 µM,–,–
"CC1(C)C(N)=N[C@]2(C)c3cc(NC(=O)c4ccc(C#CC5CC5)cn4)ccc3OCC[C@H]2S1(=O)=O [Example 193, N-((4aR,11bR)-2-amino-3,3,11b-trimethyl-4,4-dioxido-4a,5,6,11b-tetrahydro-3H-[1]benzoxepino[4,5-b][1,4]thiazin-10-yl)-5-(cyclopropylethynyl)-2-pyridinecarboxamide]",0.004 µM,–,995 µM,–,–,–,0.006 µM,–
"Cc1cc(OCC2CC2)cnc1C(=O)Nc1ccc2c(c1)[C@@]1(C)N=C(N)C(C)(C)S(=O)(=O)[C@@H]1CCO2 [Example 170, N-((4aR,11bR)-2-amino-3,3,11b-trimethyl-4,4-dioxido-4a,5,6,11b-tetrahydro-3H-[1]benzoxepino[4,5-b][1,4]thiazin-10-yl)-5-(cyclopropylmethoxy)-3-methyl-2-pyridinecarboxamide]",0.014 µM,–,2050 µM,–,–,–,0.026 µM,–
"C[C@H]1C[C@@H]2[C@](C)(N=C(N)C(C)(C)S2(=O)=O)c2cc(NC(=O)c3ccc(OCc4ncco4)cn3)ccc2O1 [Example 144, N-((4aR,6S,11bR)-2-amino-3,3,6,11b-tetramethyl-4,4-dioxido-4a,5,6,11b-tetrahydro-3H-[1]benzoxepino[4,5-b][1,4]thiazin-10-yl)-5-(1,3-oxazol-2-ylmethoxy)-2-pyridinecarboxamide]",–,–,–,0.004 µM,0.003 µM,564 µM,–,–
"COCc1ccc(C(=O)Nc2ccc3c(c2)[C@@]2(C)N=C(N)C(C)(C)S(=O)(=O)[C@@H]2CCO3)nc1 [Example 92, N-((4aR,11bR)-2-amino-3,3,11b-trimethyl-4,4-dioxido-4a,5,6,11b-tetrahydro-3H-[1]benzoxepino[4,5-b][1,4]thiazin-10-yl)-5-(methoxymethyl)-2-pyridinecarboxamide]",–,–,–,0.122 µM,0.026 µM,3050 µM,–,> 1200 µM
"CC1(C)C(N)=N[C@]2(C)c3cc(NC(=O)c4cnc(OCC(F)F)cn4)ccc3OCC[C@H]2S1(=O)=O [Example 90, N-((4aR,11bR)-2-amino-3,3,11b-trimethyl-4,4-dioxido-4a,5,6,11b-tetrahydro-3H-benzo[6,7]oxepino[4,5-b][1,4]thiazin-10-yl)-5-(2,2-difluoroethoxy)pyrazine-2-carboxamide]",–,–,–,0.007 µM,0.011 µM,919 µM,–,–
